# Assay results published in patent US20160287549A1, “NOVEL METHODS FOR TREATING NEURODEGENERATIVE DISEASES” (GENZYME CORPORATION, priority 2013, published 2016).
# Legend:
# hDHODH = hDHODH (Homo sapiens, UniProt Q02127); conditions: cited from earlier work
# PfDHODH = PfDHODH (Plasmodium falciparum, UniProt Q08210); conditions: cited from earlier work
# [1] = tested on: murine colon 38 tumor model; conditions: tissue-specific modulation of uridine nucleotide pools; cited from earlier work
# L1210 murine leukemia = conditions: cited from earlier work
# [2] = cited from earlier work
# SOD1-G93A mice [3] = assay: Survival of symptomatic SOD1-G93A ALS mice; assay type: in vivo
# Description: SOD1-G93A transgenic mice (also known as G93A-SOD1 mice) are currently the best available model to test experimental therapeutics for the treatment of ALS. […] For example, the transgenic mice present with progressive muscular atrophy and weakness. Neuroinflammation, demyelination, and motor neuron death are observed in the mice, and ultimately, the mice become paralyzed and have a shortened lifespan.
# To evaluate the effectiveness of DHODH inhibitors in treating ALS, 10 mg/kg of teriflunomide was administered by oral gavage to 82 day old SOD1-G93A male mice.
# (§1) In a second experiment, 20 mg/kg of teriflunomide was administered to 82 day old SOD1-G93A male and female mice (n=14/sex).
# Male SOD1-G93A mice (n=14) were administered W19 (subcutaneous injection at 10 mg/kg for 5 consecutive days and then every 10 mg/kg every 2 weeks thereafter) was administered starting at 82 days of age. After 7 days, peripheral blood was collected and lymphocyte depletion was evaluated using flow cytometry.
# Transgenic male (n=84) and female littermate (n=28) mice that express the mutant SOD1^G93A transgene at high-levels were divided to achieve cohort, sibling and sex matching amongst groups for these studies (Scott, S., et al. “Design, Power, and Interpretation of Studies in the Standard Murine Model of ALS.” Amyotrophic Lateral Sclerosis 9.1 (2008): 4-15. SCOPUS. Web. 18 Nov. 2013). Mutant SOD1 gene copy number and SOD1 protein expression were confirmed by PCR and western blot analysis. Animals were housed under light:dark (12:12 h) cycle and provided with food and water ad libitum. All procedures were performed using protocols approved by Genzyme Corporation's Institutional Animal Care and Use Committees.
# Mice were scored into the following phases: presymptomatic (Pre-SYMP)=no visible motor abnormalities (i.e., normal hind limb splay); Symptomatic (SYMP)=abnormal hindlimb splay; End stage (ES)=onset of limb paralysis (typically hindlimb); and Moribund (MB)=unable to right themselves within 30 sec after being placed on their back.
# SOD1-G93A mice [4] = assay: Grip strength performance test in SOD1-G93A mice; assay type: in vivo; conditions: for grip strength loss (percent decline from baseline): 20 mg/kg oral gavage, baseline at 82 days, control 46.14-67.38% loss
# Description: as §1
# Testing of motor function using a grip strength device (Columbus Instruments, Columbus, Ohio) began at 60-70 days of age as previously described (Dodge, J. C. et al. (2008) 16:1056-1064). Each weekly session consisted of 4 tests per animal. Data shown represent percent decline in strength from baseline. Baseline measurements were made at 82 days of age. Percent reduction is grip strength is shown for vehicle treated mice scored as ES and age matched sibling mice treated with teriflunomide.
# Chain of hDHODH (Q02127 whole entry): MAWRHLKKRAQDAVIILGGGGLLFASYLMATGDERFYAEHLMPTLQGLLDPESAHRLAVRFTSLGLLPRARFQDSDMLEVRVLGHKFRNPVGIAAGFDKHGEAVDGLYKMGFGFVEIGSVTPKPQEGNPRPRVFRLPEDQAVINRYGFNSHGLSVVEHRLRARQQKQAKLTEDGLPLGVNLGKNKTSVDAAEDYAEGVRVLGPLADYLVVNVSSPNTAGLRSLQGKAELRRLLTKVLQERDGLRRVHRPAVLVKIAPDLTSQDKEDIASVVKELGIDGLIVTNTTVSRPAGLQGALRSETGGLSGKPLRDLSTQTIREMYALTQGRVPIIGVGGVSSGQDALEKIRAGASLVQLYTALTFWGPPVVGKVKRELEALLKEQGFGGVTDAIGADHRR
# Chain of PfDHODH (Q08210 24-569): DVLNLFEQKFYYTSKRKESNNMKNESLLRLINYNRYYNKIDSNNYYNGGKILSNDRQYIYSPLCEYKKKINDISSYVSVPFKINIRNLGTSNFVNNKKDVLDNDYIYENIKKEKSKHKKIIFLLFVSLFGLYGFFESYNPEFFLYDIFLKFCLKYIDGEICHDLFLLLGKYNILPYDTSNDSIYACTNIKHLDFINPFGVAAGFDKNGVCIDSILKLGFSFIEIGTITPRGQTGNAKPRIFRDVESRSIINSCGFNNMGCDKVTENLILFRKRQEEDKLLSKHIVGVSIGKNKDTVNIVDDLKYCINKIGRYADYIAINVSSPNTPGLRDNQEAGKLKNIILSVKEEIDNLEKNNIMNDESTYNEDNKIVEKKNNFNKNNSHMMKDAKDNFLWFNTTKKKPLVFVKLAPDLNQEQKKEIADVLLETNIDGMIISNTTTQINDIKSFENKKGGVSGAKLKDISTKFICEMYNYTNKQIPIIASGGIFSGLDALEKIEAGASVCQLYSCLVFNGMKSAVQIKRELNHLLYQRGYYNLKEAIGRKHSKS
smiles,measurement,setting,value
CCOC(=O)C(=CNc1cccc(C(=O)OCC)c1)C(=O)OCC [Compound 58],hDHODH(50 μM),hDHODH,5 ± 2
same,PfDHODH(50 μM),PfDHODH,0 ± 4
CCOC(=O)C(=CNc1ccc(C(=O)OCC)cc1)C(=O)OCC [Compound 59],hDHODH(50 μM),hDHODH,4 ± 2
same,PfDHODH(50 μM),PfDHODH,15 ± 4
Cc1c(-c2ccc(-c3ccccc3F)cc2)nc2ccc(F)cc2c1C(=O)O [Brequinar],effect on 5-fluorouracil antitumor activity,[1],potentiates 5-fluorouracil antitumor activity
same,anticancer activity,L1210 murine leukemia,exhibits anticancer activity
"C/C(O)=C(\C#N)C(=O)Nc1ccc(C(F)(F)F)cc1 [teriflunomide, (Z)-2-cyano-3-hydroxy-but-2-enoic acid-(4′-trifluoromethylphenyl)-amide]",solubility in acetone,[2]; acetone,sparingly soluble
same,solubility in ethanol,[2]; ethanol,slightly soluble
same,solubility in isopropanol,[2]; isopropanol,very slightly soluble
same,solubility in polyethylene glycol,[2]; polyethylene glycol,slightly soluble
same,solubility in water,[2]; water,practically insoluble
same,increase in survival as compared to control,"SOD1-G93A mice [3]; 10 mg/kg oral gavage, 82 day old male SOD1-G93A mice",7 days
same,median survival,"SOD1-G93A mice [3]; 10 mg/kg oral gavage, 82 day old male SOD1-G93A mice, control 127 days, p<0.005",134 days
same,median survival,"SOD1-G93A mice [3]; 20 mg/kg oral gavage, 82 day old male and female SOD1-G93A mice, control 130 days, p<0.04",146.5 days
same,increase in median survival as compared to control,"SOD1-G93A mice [3]; 20 mg/kg, 82 day old male and female SOD1-G93A mice",16.5 days
same,grip strength loss (percent decline from baseline),SOD1-G93A mice [4]; female SOD1-G93A mice,−24.06%
same,grip strength loss (percent decline from baseline),SOD1-G93A mice [4]; male SOD1-G93A mice,−20.14%
same,effect on muscle strength loss,"SOD1-G93A mice [4]; 20 mg/kg, male and female SOD1-G93A mice",significantly slowed muscle strength loss
CCOC(=O)C(C#N)=CNc1ccc(C(=O)OCC)cc1 [Compound 60],hDHODH(50 μM),hDHODH,2 ± 2
same,PfDHODH(50 μM),PfDHODH,2 ± 4
